Key:
Experiment in all cases: Kinase panel profiling at 1 µmol/L (mobility shift assay, Carna)
Assay type in all cases: biochemical
Details in all cases: 1 µmol/L of BTK inhibitor
[1] = biological target: T1, JAK3 (Homo sapiens, UniProt P52333)
T1 construct: purchased Carna Biosciences
T1 sequence (P52333 1-1124): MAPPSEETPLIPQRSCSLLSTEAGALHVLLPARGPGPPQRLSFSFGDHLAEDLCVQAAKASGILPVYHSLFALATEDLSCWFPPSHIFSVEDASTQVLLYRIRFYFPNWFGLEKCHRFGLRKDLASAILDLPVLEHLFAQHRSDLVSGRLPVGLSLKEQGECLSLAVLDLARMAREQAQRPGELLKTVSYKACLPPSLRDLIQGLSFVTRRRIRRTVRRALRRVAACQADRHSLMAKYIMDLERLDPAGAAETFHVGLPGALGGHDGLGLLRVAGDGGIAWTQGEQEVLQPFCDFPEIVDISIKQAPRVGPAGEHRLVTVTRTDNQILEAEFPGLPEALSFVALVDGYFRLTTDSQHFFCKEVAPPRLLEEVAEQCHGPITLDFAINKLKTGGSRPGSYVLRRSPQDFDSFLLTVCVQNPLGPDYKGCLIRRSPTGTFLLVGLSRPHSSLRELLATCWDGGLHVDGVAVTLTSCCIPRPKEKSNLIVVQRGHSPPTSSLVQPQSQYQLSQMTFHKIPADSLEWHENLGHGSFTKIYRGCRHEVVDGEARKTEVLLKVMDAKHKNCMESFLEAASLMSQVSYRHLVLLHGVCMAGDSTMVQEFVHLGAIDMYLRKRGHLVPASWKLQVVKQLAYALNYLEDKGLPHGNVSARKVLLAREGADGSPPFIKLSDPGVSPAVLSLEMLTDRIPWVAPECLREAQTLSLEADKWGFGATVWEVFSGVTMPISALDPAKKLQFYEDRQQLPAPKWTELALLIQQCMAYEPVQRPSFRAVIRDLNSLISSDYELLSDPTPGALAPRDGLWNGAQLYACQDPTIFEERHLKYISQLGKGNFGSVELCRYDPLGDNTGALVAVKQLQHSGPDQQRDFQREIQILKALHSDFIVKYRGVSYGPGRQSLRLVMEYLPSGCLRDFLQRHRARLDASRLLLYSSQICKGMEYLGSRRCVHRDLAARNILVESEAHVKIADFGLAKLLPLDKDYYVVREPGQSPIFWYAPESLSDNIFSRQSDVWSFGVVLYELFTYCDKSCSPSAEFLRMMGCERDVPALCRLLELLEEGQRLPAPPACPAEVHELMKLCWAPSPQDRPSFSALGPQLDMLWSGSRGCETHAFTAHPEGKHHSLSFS

[2] = biological target: T2, SGK2 (Homo sapiens, UniProt Q9HBY8)
T2 construct: purchased Carna Biosciences
T2 sequence (Q9HBY8 1-367): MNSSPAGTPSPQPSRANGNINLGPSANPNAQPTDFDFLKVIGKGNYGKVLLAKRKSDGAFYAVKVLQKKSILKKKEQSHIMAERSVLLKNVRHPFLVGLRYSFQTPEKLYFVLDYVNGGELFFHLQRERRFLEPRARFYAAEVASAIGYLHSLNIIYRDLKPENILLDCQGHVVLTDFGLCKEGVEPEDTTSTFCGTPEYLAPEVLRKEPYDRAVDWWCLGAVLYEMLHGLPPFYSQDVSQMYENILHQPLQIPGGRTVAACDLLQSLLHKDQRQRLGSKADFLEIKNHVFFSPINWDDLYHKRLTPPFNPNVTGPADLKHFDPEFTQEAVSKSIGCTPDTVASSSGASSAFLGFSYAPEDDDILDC

[3] = biological target: T3, CGK2 (Homo sapiens, UniProt Q13237)
T3 construct: purchased Carna Biosciences
T3 sequence (Q13237 1-762): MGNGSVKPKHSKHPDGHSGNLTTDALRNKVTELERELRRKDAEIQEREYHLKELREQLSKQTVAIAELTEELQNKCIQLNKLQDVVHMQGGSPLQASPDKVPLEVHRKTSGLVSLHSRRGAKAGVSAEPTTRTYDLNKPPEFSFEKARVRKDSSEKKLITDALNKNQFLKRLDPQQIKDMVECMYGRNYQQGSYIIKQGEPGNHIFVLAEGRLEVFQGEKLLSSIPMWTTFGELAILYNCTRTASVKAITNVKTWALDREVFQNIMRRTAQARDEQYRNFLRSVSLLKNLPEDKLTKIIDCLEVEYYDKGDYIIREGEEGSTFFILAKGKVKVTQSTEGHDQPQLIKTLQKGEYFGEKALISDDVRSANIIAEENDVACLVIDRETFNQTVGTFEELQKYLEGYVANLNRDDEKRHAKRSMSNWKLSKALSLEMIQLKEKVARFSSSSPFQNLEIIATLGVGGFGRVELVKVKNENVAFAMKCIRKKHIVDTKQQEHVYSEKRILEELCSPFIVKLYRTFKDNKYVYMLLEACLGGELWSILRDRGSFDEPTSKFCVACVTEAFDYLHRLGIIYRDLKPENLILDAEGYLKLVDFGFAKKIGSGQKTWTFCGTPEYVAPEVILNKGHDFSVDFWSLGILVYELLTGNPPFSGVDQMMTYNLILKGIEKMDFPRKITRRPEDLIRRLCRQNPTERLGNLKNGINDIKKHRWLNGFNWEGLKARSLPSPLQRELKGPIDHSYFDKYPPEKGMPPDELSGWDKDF

[4] = biological target: T4, AurA/TPX2 (Homo sapiens, UniProt O14965)
T4 construct: purchased Carna Biosciences
T4 sequence (O14965 1-403): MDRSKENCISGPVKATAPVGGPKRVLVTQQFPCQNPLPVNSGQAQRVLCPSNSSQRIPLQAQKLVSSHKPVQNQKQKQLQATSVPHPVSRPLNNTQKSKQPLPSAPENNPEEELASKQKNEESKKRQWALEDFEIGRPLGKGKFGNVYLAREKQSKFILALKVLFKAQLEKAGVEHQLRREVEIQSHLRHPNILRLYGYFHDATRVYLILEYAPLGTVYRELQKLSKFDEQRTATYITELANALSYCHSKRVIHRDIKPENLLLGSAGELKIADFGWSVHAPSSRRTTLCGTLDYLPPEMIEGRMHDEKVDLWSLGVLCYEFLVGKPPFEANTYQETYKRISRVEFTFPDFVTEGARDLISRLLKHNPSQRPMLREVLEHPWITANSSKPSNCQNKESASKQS
T4 sequence (Q9ULW0 1-43 partner limits assumed): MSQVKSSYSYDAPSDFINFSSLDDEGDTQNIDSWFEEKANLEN

[5] = biological target: T5, AKT3 (Homo sapiens, UniProt Q9Y243)
T5 construct: purchased Carna Biosciences
T5 sequence (Q9Y243 whole entry): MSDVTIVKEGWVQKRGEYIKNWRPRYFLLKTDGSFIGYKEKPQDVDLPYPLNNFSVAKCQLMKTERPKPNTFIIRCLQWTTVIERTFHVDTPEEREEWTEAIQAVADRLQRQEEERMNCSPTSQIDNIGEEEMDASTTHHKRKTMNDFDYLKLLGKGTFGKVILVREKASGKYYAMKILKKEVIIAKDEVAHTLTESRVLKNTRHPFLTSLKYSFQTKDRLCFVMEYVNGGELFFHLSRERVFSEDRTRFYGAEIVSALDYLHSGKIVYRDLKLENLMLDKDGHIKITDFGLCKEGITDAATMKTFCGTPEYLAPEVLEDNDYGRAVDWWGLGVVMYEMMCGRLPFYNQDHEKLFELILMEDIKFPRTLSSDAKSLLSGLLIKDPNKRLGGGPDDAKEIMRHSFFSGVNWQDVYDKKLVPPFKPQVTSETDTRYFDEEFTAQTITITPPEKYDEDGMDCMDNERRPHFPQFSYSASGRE

C=CC(=O)N1CCC([C@@H]2CCNc3c(C(N)=O)c(-c4ccc(Oc5ccccc5)cc4)nn32)CC1 [zanubrutinib]
Percentage inhibition of kinase enzyme activity [1]: 10.83%

CC#CC(=O)N1CCC[C@H]1c1nc(-c2ccc(C(=O)Nc3ccccn3)cc2)c2c(N)nccn12 [acalabrutinib]
Percentage inhibition of kinase enzyme activity [1]: -1.00% | Percentage inhibition of kinase enzyme activity [2]: -19.42% | Percentage inhibition of kinase enzyme activity [3]: 1.55% | Percentage inhibition of kinase enzyme activity [4]: -4.71% | Percentage inhibition of kinase enzyme activity [5]: -4.92%

COc1ccc(F)cc1C(=O)NCc1ccc(-c2nn([C@@H](C)C(F)(F)F)c(N)c2C(N)=O)cc1 [pirtobrutinib]
Percentage inhibition of kinase enzyme activity [1]: -1.25% | Percentage inhibition of kinase enzyme activity [2]: -0.16% | Percentage inhibition of kinase enzyme activity [3]: -1.75% | Percentage inhibition of kinase enzyme activity [4]: 1.13% | Percentage inhibition of kinase enzyme activity [5]: -2.20%

O=C(c1ccc(Oc2ccccc2)cc1Cl)c1c[nH]c2ncnc(N[C@@H]3CC[C@@H](CO)OC3)c12 [nemtabrutinib]
Percentage inhibition of kinase enzyme activity [1]: 97.48% | Percentage inhibition of kinase enzyme activity [2]: 2.52% | Percentage inhibition of kinase enzyme activity [3]: -1.75% | Percentage inhibition of kinase enzyme activity [4]: 4.98% | Percentage inhibition of kinase enzyme activity [5]: 9.45%

C=CC(=O)N1CCC[C@@H](n2nc(-c3ccc(Oc4ccccc4)cc3)c3c(N)ncnc32)C1 [ibrutinib]
Percentage inhibition of kinase enzyme activity [1]: 90.92% | Percentage inhibition of kinase enzyme activity [3]: -1.77% | Percentage inhibition of kinase enzyme activity [4]: -2.33% | Percentage inhibition of kinase enzyme activity [5]: -2.25%

Reference: article PMC12586182 (Frontiers in Oncology, 2025)
